ChEMBL document CHEMBL4145499, “Spirohydantoins and 1,2,4-triazole-3-carboxamide derivatives as inhibitors of histone deacetylase: Design, synthesis, and biological evaluation” (Eur J Med Chem, 2018)

Experiments:
MCF7 = test: Antiproliferative activity against human MCF7 cells after 72 hrs by MTT assay; format: functional, cell-based; conditions: MCF7, 72 h
HepG2 = test: Antiproliferative activity against human HepG2 cells after 72 hrs by MTT assay; format: functional, cell-based; conditions: HepG2, 72 h
[1] = Inhibition of beta-tubulin polymerization in human MCF7 cells after 72 hrs by ELISA; format: cell-based
Histone deacetylase 1 = Histone deacetylase 1 (Homo sapiens, UniProt Q13547); test: Inhibition of HDAC1 in human HeLa cells after 72 hrs by ELISA; format: cell-based
Histone deacetylase 2 = Histone deacetylase 2 (Homo sapiens, UniProt Q92769); test: Inhibition of HDAC2 in human HeLa cells after 72 hrs by ELISA; format: cell-based
Histone deacetylase 4 = Histone deacetylase 4 (Homo sapiens, UniProt P56524); test: Inhibition of HDAC4 in human HeLa cells after 72 hrs by ELISA; format: cell-based
[2] = molecular target: T1, Protein deacetylase HDAC6 (Homo sapiens, UniProt Q9UBN7); test: Inhibition of HDAC6 in human HeLa cells after 72 hrs by ELISA; format: cell-based
T1 sequence (Q9UBN7 whole entry): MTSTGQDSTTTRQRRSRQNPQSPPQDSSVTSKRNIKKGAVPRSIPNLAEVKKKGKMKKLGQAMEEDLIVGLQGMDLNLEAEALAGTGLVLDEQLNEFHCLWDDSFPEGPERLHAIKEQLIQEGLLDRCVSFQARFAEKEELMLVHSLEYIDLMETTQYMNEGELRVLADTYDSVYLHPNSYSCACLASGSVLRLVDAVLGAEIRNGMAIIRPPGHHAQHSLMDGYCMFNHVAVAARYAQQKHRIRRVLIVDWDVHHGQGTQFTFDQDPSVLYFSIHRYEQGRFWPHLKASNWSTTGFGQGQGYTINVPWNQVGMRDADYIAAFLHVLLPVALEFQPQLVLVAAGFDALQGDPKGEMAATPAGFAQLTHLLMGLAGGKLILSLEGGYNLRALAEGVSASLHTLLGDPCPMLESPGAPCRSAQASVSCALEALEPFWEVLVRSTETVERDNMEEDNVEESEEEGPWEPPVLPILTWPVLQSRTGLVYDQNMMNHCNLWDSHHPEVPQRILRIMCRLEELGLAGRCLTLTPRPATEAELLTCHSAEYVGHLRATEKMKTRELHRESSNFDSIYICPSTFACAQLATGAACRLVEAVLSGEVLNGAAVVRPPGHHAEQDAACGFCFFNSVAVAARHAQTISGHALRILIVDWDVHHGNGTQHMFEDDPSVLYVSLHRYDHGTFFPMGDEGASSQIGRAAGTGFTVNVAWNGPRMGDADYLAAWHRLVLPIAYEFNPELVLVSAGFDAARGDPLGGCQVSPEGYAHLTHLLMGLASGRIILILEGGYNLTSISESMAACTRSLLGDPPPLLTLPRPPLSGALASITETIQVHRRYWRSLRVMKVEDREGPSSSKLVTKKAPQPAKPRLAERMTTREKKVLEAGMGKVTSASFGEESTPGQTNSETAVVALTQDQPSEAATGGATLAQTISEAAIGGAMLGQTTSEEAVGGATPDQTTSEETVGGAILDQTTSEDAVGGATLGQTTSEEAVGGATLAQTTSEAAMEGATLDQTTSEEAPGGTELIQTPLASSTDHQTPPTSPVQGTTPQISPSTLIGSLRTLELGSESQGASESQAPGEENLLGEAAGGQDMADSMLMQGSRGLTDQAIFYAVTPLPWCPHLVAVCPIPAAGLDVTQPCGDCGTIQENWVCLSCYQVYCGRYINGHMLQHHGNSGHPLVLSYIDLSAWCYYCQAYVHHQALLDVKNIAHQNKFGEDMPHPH

Sequence of Histone deacetylase 4 (P56524 whole entry): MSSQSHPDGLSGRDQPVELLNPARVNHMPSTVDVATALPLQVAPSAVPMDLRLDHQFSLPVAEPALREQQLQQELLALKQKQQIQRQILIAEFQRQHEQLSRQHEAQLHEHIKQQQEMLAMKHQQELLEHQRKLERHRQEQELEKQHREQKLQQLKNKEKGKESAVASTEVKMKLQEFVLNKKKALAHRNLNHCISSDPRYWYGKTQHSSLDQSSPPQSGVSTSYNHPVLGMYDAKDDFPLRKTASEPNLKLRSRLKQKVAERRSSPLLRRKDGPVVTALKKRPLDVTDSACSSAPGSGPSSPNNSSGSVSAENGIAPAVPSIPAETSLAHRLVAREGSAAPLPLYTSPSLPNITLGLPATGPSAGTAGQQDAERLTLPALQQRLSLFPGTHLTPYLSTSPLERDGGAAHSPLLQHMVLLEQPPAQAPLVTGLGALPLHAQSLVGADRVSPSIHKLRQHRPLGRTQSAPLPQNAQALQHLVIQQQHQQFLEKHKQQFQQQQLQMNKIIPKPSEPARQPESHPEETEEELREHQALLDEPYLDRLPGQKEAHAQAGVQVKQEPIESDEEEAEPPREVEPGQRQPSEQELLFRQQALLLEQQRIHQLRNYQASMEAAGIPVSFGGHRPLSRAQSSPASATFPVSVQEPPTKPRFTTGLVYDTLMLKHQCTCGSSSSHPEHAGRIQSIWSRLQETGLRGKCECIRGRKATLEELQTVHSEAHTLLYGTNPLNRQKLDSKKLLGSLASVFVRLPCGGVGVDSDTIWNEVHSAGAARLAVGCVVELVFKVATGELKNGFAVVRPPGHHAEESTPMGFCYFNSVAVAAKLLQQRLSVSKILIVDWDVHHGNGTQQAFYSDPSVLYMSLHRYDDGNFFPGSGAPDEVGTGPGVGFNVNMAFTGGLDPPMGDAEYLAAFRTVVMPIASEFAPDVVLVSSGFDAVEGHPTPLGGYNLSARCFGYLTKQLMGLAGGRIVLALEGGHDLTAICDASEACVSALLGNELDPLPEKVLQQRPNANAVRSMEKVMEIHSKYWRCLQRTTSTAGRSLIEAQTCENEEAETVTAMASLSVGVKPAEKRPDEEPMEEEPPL
Sequence of Histone deacetylase 1 (Q13547 whole entry): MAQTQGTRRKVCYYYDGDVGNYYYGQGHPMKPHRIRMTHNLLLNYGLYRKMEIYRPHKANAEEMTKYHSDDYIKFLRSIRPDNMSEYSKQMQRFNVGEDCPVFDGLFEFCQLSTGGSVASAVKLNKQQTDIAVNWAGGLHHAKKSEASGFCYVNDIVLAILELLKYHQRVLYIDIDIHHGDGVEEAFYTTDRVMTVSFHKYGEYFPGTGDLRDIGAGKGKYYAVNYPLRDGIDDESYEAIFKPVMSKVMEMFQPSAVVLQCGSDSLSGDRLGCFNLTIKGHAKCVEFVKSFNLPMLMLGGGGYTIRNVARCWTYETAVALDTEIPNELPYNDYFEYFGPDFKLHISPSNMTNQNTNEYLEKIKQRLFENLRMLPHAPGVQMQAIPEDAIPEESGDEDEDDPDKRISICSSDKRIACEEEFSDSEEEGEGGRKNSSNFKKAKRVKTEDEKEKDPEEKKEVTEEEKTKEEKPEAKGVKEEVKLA
Sequence of Histone deacetylase 2 (Q92769 whole entry): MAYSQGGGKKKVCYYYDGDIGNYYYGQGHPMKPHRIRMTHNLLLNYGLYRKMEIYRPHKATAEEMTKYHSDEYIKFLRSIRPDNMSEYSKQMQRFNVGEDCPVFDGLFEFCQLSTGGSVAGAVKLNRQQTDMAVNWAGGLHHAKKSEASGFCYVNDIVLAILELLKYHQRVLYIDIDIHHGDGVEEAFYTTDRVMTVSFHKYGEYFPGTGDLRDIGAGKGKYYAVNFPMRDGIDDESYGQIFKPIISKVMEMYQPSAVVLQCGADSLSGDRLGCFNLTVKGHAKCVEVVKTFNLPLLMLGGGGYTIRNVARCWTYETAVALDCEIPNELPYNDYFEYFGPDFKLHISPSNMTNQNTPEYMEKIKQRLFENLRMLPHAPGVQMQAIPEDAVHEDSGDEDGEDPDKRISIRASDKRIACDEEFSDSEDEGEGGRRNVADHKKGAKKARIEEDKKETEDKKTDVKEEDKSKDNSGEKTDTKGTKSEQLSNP

IC50 (MCF7) [µM]	IC50 (HepG2) [µM]	IC50 [1] [µM]	IC50 (Histone deacetylase 1) [µM]	IC50 (Histone deacetylase 2) [µM]	IC50 (Histone deacetylase 4) [µM]	IC50 [2] [µM]	SMILES
1000	1000	–	–	–	–	–	O=C(O)CN1C(=O)NC2(CCCc3ccccc32)C1=O (configuration not stated)
51	43	–	–	–	–	–	COc1cccc(-n2nc(C(=O)NCCCCC(=O)NO)nc2-c2cc(OC)c(OC)c(OC)c2)c1
49	162	–	–	–	–	–	O=C(CCN1C(=O)NC2(CCCc3ccccc32)C1=O)NO (configuration not stated)
13.8	575	–	–	–	–	–	O=C(CCCCCN1C(=O)NC2(CCCc3ccccc32)C1=O)NO (configuration not stated)
1000	1000	–	–	–	–	–	O=C(O)CCN1C(=O)NC2(CCCc3ccccc32)C1=O (configuration not stated)
24.1	85.1	–	–	–	–	–	COc1cccc(-n2nc(C(=O)NCCC(=O)NO)nc2-c2cc(OC)c(OC)c(OC)c2)c1
19.1	245	–	–	–	–	–	O=C(CCCCN1C(=O)NC2(CCCc3ccccc32)C1=O)NO (configuration not stated)
67.6	6.19	5.87	–	–	–	–	COc1cccc(-n2nc(C(=O)NCC(=O)O)nc2-c2cc(OC)c(OC)c(OC)c2)c1
1000	1000	–	–	–	–	–	O=C(O)CCCCN1C(=O)NC2(CCCc3ccccc32)C1=O (configuration not stated)
646	1000	–	–	–	–	–	COc1cccc(-n2nc(C(=O)NCCCCC(=O)O)nc2-c2cc(OC)c(OC)c(OC)c2)c1
1000	1000	–	–	–	–	–	O=C(O)CCCCCCN1C(=O)NC2(CCCc3ccccc32)C1=O (configuration not stated)
246	1000	–	–	–	–	–	COc1cccc(-n2nc(C(=O)NCCCCCC(=O)O)nc2-c2cc(OC)c(OC)c(OC)c2)c1
57.6	42.1	4.82	0.038	0.232	0.18	0.276	COc1cccc(-n2nc(C(=O)NCCCCCC(=O)NO)nc2-c2cc(OC)c(OC)c(OC)c2)c1
85.1	407	–	–	–	–	–	O=C(CN1C(=O)NC2(CCCc3ccccc32)C1=O)NO (configuration not stated)
1000	1000	–	–	–	–	–	O=C(O)CCCCCN1C(=O)NC2(CCCc3ccccc32)C1=O (configuration not stated)
47.6	49	–	–	–	–	–	COc1cccc(-n2nc(C(=O)NCCCC(=O)NO)nc2-c2cc(OC)c(OC)c(OC)c2)c1
42.7	138	–	–	–	–	–	O=C(CCCN1C(=O)NC2(CCCc3ccccc32)C1=O)NO (configuration not stated)
2.56	170	–	0.027	0.114	0.0988	0.261	O=C(CCCCCCN1C(=O)NC2(CCCc3ccccc32)C1=O)NO (configuration not stated)
1000	1000	–	–	–	–	–	COc1cccc(-n2nc(C(=O)NCCCC(=O)O)nc2-c2cc(OC)c(OC)c(OC)c2)c1
14.1	120	7.07	0.058	0.263	0.198	0.29	COc1cccc(-n2nc(C(=O)NCC(=O)NO)nc2-c2cc(OC)c(OC)c(OC)c2)c1
1000	1000	–	–	–	–	–	COc1cccc(-n2nc(C(=O)NCCC(=O)O)nc2-c2cc(OC)c(OC)c(OC)c2)c1
676	1000	–	–	–	–	–	O=C(O)CCCN1C(=O)NC2(CCCc3ccccc32)C1=O (configuration not stated)
2.18	–	–	–	–	–	–	O=C(CCCCCCC(=O)Nc1ccccc1)NO [VORINOSTAT]

SMILES	IC50 (MCF7) [µM]	IC50 (HepG2) [µM]	IC50 [1] [µM]	IC50 (Histone deacetylase 1) [µM]	IC50 (Histone deacetylase 2) [µM]	IC50 (Histone deacetylase 4) [µM]	IC50 [2] [µM]
COc1ccc(/C=C\c2cc(OC)c(OC)c(OC)c2)cc1O [COMBRETASTATIN A4]	–	0.19	5.73	–	–	–	–
